From ChEMBL document CHEMBL1201862, “PubChem BioAssay data set” (2004)
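Grown in 96-well plates, cells were treated for 48 hours with each compound at five concentrations. Insufficient inhibition: endpoint recorded as highest concentration tested. GI50: concentration for 50% inhibition of growth.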 Active and inactive are the calls of the source. Cut-off read from the data, not from the text of the source: active = GI50 up to about 1.1 µM and inactive = higher.

Legend:
Test in all cases: DTP human tumour cell line panel, 48 h
RPMI-8226 = test system: RPMI-8226
HCT-15 = test system: HCT-15
NCI-H23 = test system: NCI-H23
COLO 205 = test system: COLO 205
TK-10 = test system: TK-10
A498 = test system: A498
NCI/ADR-RES = test system: NCI/ADR-RES
M14 = test system: M14
EKVX = test system: EKVX
SNB-19 = test system: SNB-19
CAKI-1 = test system: CAKI-1
HT-29 = test system: HT-29
MDA-N = test system: MDA-N
UACC-62 = test system: UACC-62
UO-31 = test system: UO-31
DU-145 = test system: DU-145
SF-295 = test system: SF-295
HOP-62 = test system: HOP-62

SMILES | GI50 (RPMI-8226) | GI50 (HCT-15) | GI50 (NCI-H23) | GI50 (COLO 205) | GI50 (TK-10) | GI50 (A498) | GI50 (NCI/ADR-RES) | GI50 (M14) | GI50 (EKVX) | GI50 (SNB-19) | GI50 (CAKI-1) | GI50 (HT-29) | GI50 (MDA-N) | GI50 (UACC-62) | GI50 (UO-31) | GI50 (DU-145) | GI50 (SF-295) | GI50 (HOP-62)
COc1cc(C2SCC(=O)N2c2ccccn2)cc(OC)c1OC (configuration not stated) | 91 µM (inactive) | 55.5 µM | > 100 µM (inactive) | > 100 µM (inactive) | > 100 µM (inactive) | > 100 µM (inactive) | 39.6 µM (inactive) | > 100 µM (inactive) | > 100 µM (inactive) | > 100 µM (inactive) | > 100 µM (inactive) | > 100 µM (inactive) | 19 µM (inactive) | 87.5 µM (inactive) | > 100 µM (inactive) | > 100 µM (inactive) | 81.1 µM (inactive) | 
Cc1ccc2[nH]c3[nH]c(=S)[nH]c(=O)c3c2c1 | 72.8 µM (inactive) | > 100 µM | > 100 µM (inactive) | > 100 µM (inactive) | > 100 µM (inactive) | > 100 µM (inactive) | > 100 µM (inactive) | > 100 µM (inactive) | > 100 µM (inactive) | > 100 µM (inactive) | > 100 µM (inactive) | > 100 µM (inactive) | > 100 µM (inactive) | > 100 µM (inactive) | > 100 µM (inactive) | > 100 µM (inactive) | > 100 µM (inactive) | > 100 µM (inactive)
O=C(NC/C=C/Br)NC1CCNc2ccccc21 (configuration not stated) | 27.2 µM (inactive) | 37.3 µM | 16.8 µM (inactive) | 18.7 µM (inactive) | 42.3 µM (inactive) | 31.9 µM (inactive) | 32.1 µM (inactive) | 17.7 µM (inactive) | 47.6 µM (inactive) | 41.3 µM (inactive) | 42.1 µM (inactive) | 15.7 µM (inactive) | 31.9 µM (inactive) | 31.3 µM (inactive) | 27.8 µM (inactive) | 52.1 µM (inactive) | 45.4 µM (inactive) | 45.2 µM (inactive)
Cc1ccsc1C(=S)Nc1ccc(Cl)c(/C=N/OC(C)C)c1 | 14.7 µM (inactive) | 15.5 µM | 20.1 µM (inactive) | 18.7 µM (inactive) | 65.3 µM (inactive) | 64 µM (inactive) | 30 µM (inactive) | 37.7 µM (inactive) | 22.9 µM (inactive) | 44.5 µM (inactive) | 46.3 µM (inactive) | 27.5 µM (inactive) | 37.8 µM (inactive) | 64.1 µM (inactive) | 21.1 µM (inactive) | 92.5 µM (inactive) | 30.1 µM (inactive) | 64.9 µM (inactive)
O=[N+]([O-])c1ccc(/N=N/c2c(O)ccc3cc(S(=O)(=O)O)cc(S(=O)(=O)O)c23)cc1 | > 100 µM (inactive) | > 100 µM | > 100 µM (inactive) | > 100 µM (inactive) | > 100 µM (inactive) | > 100 µM (inactive) | > 100 µM (inactive) | > 100 µM (inactive) | > 100 µM (inactive) | > 100 µM (inactive) | > 100 µM (inactive) | > 100 µM (inactive) | > 100 µM (inactive) | > 100 µM (inactive) | > 100 µM (inactive) | > 100 µM (inactive) | > 100 µM (inactive) | > 100 µM (inactive)
CCN1C(=S)n2cccc2C1CC(=O)c1ccc(Cl)cc1 (configuration not stated) | 15.7 µM (inactive) | 51.8 µM | 13 µM (inactive) |  | 95.9 µM (inactive) | 43.5 µM (inactive) | 42.4 µM (inactive) | 89.9 µM (inactive) | 32.3 µM (inactive) | 75.3 µM (inactive) | > 100 µM (inactive) | 68.7 µM (inactive) | 88.5 µM (inactive) | 62.2 µM (inactive) | 42.9 µM (inactive) | > 100 µM (inactive) | 63.7 µM (inactive) | > 100 µM (inactive)
COC(=O)c1cc(C(=O)OC)cc(-c2ccc3c(c2)-c2nc4c(c(-c5ccc(OC)cc5)c2CC3)CCc2ccc(-c3cc(C(=O)OC)cc(C(=O)OC)c3)cc2-4)c1 | > 100 µM (inactive) | > 100 µM | > 100 µM (inactive) | > 100 µM (inactive) | > 100 µM (inactive) | > 100 µM (inactive) | > 100 µM (inactive) | > 100 µM (inactive) | 16.9 µM (inactive) | > 100 µM (inactive) | > 100 µM (inactive) |  | > 100 µM (inactive) | > 100 µM (inactive) | > 100 µM (inactive) | > 100 µM (inactive) | > 100 µM (inactive) | > 100 µM (inactive)
Cc1ccc(S(=O)(=O)n2c3ccc(Br)cc3c3nc4ccccc4nc32)cc1 | > 100 µM (inactive) | > 100 µM | > 100 µM (inactive) | > 100 µM (inactive) | > 100 µM (inactive) | > 100 µM (inactive) | > 100 µM (inactive) | > 100 µM (inactive) |  | > 100 µM (inactive) | > 100 µM (inactive) | > 100 µM (inactive) | > 100 µM (inactive) | > 100 µM (inactive) | > 100 µM (inactive) | > 100 µM (inactive) | > 100 µM (inactive) | > 100 µM (inactive)
Cc1cccc(Nc2cn(CCOc3ccccc3)c(=O)[nH]c2=O)c1 | 34 µM (inactive) | 49.9 µM | 31 µM (inactive) | 18.8 µM (inactive) |  | > 100 µM (inactive) | 1.73 µM (inactive) | 47.2 µM (inactive) | 11.3 µM (inactive) | 97.1 µM (inactive) | 41.2 µM (inactive) |  | 32.4 µM (inactive) | 46.6 µM (inactive) | 21.4 µM (inactive) | 28.5 µM (inactive) | 49.9 µM (inactive) | 29.8 µM (inactive)
CC(NC(=O)Cc1ccc(OP(=O)(OCc2ccc([N+](=O)[O-])o2)N(C)CCCCCl)cc1)c1ccc(OCC2CCCCC2)c(C(N)=O)c1 (configuration not stated) | 0.574 µM (active) | 2.39 µM | 2.08 µM (inactive) | 1.63 µM (inactive) | 3.22 µM (inactive) | 3.01 µM (inactive) | 4.5 µM (inactive) | 2.12 µM (inactive) |  | 3.3 µM (inactive) | 2.91 µM (inactive) | 1.39 µM (inactive) | 1.88 µM (inactive) | 1.74 µM (inactive) | 2.58 µM (inactive) | 2.8 µM (inactive) | 2.24 µM (inactive) | 2.65 µM (inactive)
CCOC(=O)c1nc[nH]c1/N=N/N(C)N | 46.6 µM (inactive) | 91.4 µM | > 100 µM (inactive) | 36.6 µM (inactive) | > 100 µM (inactive) | 40.6 µM (inactive) | > 100 µM (inactive) | > 100 µM (inactive) | > 100 µM (inactive) |  | 15.4 µM (inactive) | 61.1 µM (inactive) | > 100 µM (inactive) | > 100 µM (inactive) | > 100 µM (inactive) | > 100 µM (inactive) | 91.2 µM (inactive) | > 100 µM (inactive)
COc1ccc(OC)c2sc(N3C(=O)/C(=C/c4ccccc4S)N=C3c3ccccc3)nc12 | 22.6 µM (inactive) | 34.1 µM |  | 32.8 µM (inactive) | > 100 µM (inactive) | 55.5 µM (inactive) | 77.8 µM (inactive) | 36.5 µM (inactive) | 32.1 µM (inactive) | 69.2 µM (inactive) | 95.9 µM (inactive) | 38.9 µM (inactive) | 21.8 µM (inactive) | 21.5 µM (inactive) | 28.1 µM (inactive) | 49.4 µM (inactive) | 52.4 µM (inactive) | 82.6 µM (inactive)
